Assay results published in publication PMC7932537, “Quantitative profiling of protease specificity” (PLoS Computational Biology, 2021).

What was measured:
[1] = biological target: T1, MMP-2 (Homo sapiens, UniProt P08253); assay: K(obs) of individual phage substrates (set of 1369); assay type: biochemical; conditions: MMP2
T1 sequence (P08253 110-660): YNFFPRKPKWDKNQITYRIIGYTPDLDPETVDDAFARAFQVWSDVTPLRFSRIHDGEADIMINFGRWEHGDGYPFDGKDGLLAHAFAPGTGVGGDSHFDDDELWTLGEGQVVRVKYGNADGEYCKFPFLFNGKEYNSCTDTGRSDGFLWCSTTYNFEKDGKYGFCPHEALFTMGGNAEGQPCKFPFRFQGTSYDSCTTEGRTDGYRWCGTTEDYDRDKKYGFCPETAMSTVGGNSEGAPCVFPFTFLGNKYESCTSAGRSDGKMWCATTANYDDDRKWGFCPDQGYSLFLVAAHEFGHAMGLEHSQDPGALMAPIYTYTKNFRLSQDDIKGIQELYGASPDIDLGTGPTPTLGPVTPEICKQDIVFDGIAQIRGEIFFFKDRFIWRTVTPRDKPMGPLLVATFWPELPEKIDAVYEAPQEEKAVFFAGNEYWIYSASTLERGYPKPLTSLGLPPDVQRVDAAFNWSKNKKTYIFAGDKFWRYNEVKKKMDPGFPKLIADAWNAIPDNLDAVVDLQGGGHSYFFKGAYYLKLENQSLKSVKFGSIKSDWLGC

[2] = biological target: MMP-9 (Homo sapiens, UniProt P14780); assay: as above; assay type: biochemical; conditions: MMP9, individual phage substrates, set of 1369 peptides
MMP-9, sequence (P14780 94-707): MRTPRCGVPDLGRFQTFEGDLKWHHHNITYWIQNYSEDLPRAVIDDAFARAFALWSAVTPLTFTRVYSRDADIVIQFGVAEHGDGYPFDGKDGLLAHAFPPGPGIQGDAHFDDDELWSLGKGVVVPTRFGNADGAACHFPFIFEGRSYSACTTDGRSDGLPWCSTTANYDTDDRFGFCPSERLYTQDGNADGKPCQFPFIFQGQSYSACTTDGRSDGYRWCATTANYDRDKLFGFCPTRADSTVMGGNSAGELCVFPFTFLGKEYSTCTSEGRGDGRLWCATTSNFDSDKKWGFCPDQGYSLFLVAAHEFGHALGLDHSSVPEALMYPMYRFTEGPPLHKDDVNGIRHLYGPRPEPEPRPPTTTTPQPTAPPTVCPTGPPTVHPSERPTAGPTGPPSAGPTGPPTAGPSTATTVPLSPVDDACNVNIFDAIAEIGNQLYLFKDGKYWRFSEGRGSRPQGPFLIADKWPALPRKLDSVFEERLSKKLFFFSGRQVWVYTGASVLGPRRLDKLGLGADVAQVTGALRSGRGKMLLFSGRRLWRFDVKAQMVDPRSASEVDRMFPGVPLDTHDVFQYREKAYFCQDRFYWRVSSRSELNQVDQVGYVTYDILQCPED

[3] = individual phage substrates, set of 1369 peptides, cleavage position marked by '-' in the sequence
[4] = '-' marks the cleavage position (P1-P1')
[5] = individual phage substrate from the set of 1369 peptides, cleavage position marked by the dash in the sequence
[6] = dash in sequence marks cleavage position

Kobs [1, 3] [M⁻¹ s⁻¹]	Kobs [2, 4] [M⁻¹ s⁻¹]	Kobs [1, 5] [M⁻¹ s⁻¹]	Kobs [2, 6] [M⁻¹ s⁻¹]	Substance
3165.09	1030.73	–	–	GKASN-LYTAS
–	–	56.119	0	GKFAT-LVTAS
–	–	2761.81	1239.69	GKPNR-LVTAS
–	–	12792.1	12792.1	GKPQN-LRTAS
0	27.918	–	–	GKVHQ-MLTAS
517.582	201.585	–	–	GKVNN-LVTAS
12792.1	12792.1	–	–	GLPQA-LLTAS
12792.1	7015.91	–	–	GMVLN-LTASG
0	0	–	–	GMYLN-LKTAS
0	0	–	–	GPVMR-MSTAS
0	836.403	–	–	GQHMR-LITAS
–	–	10866.7	2761.81	GQPAH-LSTAS
–	–	2157.02	1283.43	GQPNF-LTASG
–	–	12792.1	12792.1	GQPRN-LSTAS
7386.83	6131.32	–	–	GQPVP-MLTAS
0	323.705	–	–	GQVFR-LITAS
484.315	1071.29	–	–	GRAQN-LLTAS
–	–	551.253	0	GRASR-LVTAS
–	–	3165.09	1981.53	GRAWG-LITAS
836.403	0	–	–	GRHQS-LRTAS
7815.03	0	–	–	GRIAL-LTTAS
12792.1	10866.7	–	–	GRPLQ-YRTAS
10866.7	12792.1	–	–	GRPMN-LRTAS
12792.1	1112.44	–	–	GRVAH-LRTAS
0	0	–	–	GRVHR-LSTAS
551.253	1327.88	–	–	GRVWH-LQTAS
27.918	0	–	–	GSAHL-LLTAS

Kobs [1, 3] [M⁻¹ s⁻¹]	Kobs [2, 4] [M⁻¹ s⁻¹]	Kobs [1, 5] [M⁻¹ s⁻¹]	Kobs [2, 6] [M⁻¹ s⁻¹]	Substance
0	0	–	–	GSGAK-LIVRT
–	–	0	0	GSGHR-LMMGT
–	–	84.609	0	GSGLA-LKMGT
0	231.616	–	–	GSGLE-LRVNT
–	–	84.609	84.609	GSGMA-LTHIT
0	0	–	–	GSGMR-LVLRT
1196.62	484.315	–	–	GSGNF-LRKMT
0	0	–	–	GSGNR-LMRLT
201.585	231.616	–	–	GSGQG-LKVRT
–	–	0	27.918	GSGWR-LTVGT
10866.7	0	–	–	GTIAH-LHTAS
0	0	–	–	GTLLD-LITAS
1763.55	0	–	–	GTMMS-LMTAS
12792.1	5461.43	–	–	GTPLG-QITAS
292.668	2218.08	–	–	GTVWA-LTTAS
142.481	231.616	–	–	GVGHN-LRTAS
–	–	517.582	355.093	GVINQ-LRTAS
3438.54	0	–	–	GVLGH-LSTAS
0	0	–	–	GVMMQ-LVTAS
5090.5	12792.1	–	–	GVPLN-VKTAS
4335.13	5889.62	–	–	GVPQW-IHTAS
–	–	142.481	0	GVSAR-LVTAS
0	0	–	–	GVVHS-FCTAS
201.585	261.974	–	–	GYGLH-LRTAS
10866.7	10866.7	–	–	HGPMS-LTASG
12792.1	12792.1	–	–	HHPAA-LTASG
–	–	7015.91	0	HLFQW-LTASG

The remaining lines, values behind:

Substance	Kobs [1, 3] [M⁻¹ s⁻¹]	Kobs [2, 4] [M⁻¹ s⁻¹]	Kobs [1, 5] [M⁻¹ s⁻¹]	Kobs [2, 6] [M⁻¹ s⁻¹]
GKPLP-WTASG	6131.32	5889.62	–	–
GKTWA-LTASG	323.705	912.511	–	–
GKVRN-LTTAS	10866.7	8321.48	–	–
GLAVG-LRTAS	12792.1	4922.1	–	–
GLAYS-LQTAS	–	–	1561.44	2476.66
GNADL-IMTAS	–	–	0	0
GNAMR-MVTAS	0	56.119	–	–
GPAGH-LSTAS	–	–	5889.62	951.362
GPAQD-LYTAS	–	–	0	0
GPMQR-LMTAS	0	0	–	–
GQAWA-LGTAS	484.315	355.093	–	–
GQPFA-LSTAS	12792.1	12792.1	–	–
GQVRA-LRTAS	12792.1	12792.1	–	–
GRALA-MQTAS	3637.04	2218.08	–	–
GRASA-LNTAS	517.582	0	–	–
GRAWM-MVTAS	–	–	0	27.918
GRLGC-LKTAS	1112.44	113.394	–	–
GRPHP-LSTAS	12792.1	8941.32	–	–
GRVLH-LRTAS	3850.82	2280.5	–	–
GSALA-LTTAS	619.843	1196.62	–	–
GSGAW-LKKIT	0	0	–	–
GSGFA-LVAKT	–	–	0	323.705
GSGFQ-LRVFT	0	84.609	–	–
GSGNS-LKRRT	–	–	142.481	0
GSGQG-LRMGT	–	–	0	0

Substance	Kobs [1, 3] [M⁻¹ s⁻¹]	Kobs [2, 4] [M⁻¹ s⁻¹]	Kobs [1, 5] [M⁻¹ s⁻¹]	Kobs [2, 6] [M⁻¹ s⁻¹]
GSGSD-LKSKT	–	–	12792.1	355.093
GSGWD-LKRST	–	–	142.481	0
GSPLD-LKTAS	–	–	12792.1	8941.32
GSPLS-WRTAS	7815.03	6396.07	–	–
GSPVQ-LTTAS	1816.46	1327.88	–	–
GSPVW-LRTAS	12792.1	9740.44	–	–
GTIAY-LNTAS	1870.4	0	–	–
GTIDL-LTTAS	0	201.585	–	–
GTIFR-LTASG	551.253	619.843	–	–
GTLAQ-ISTAS	–	–	0	517.582
GTPSK-LYTAS	–	–	6131.32	2038.8
GTVRH-LSTAS	6396.07	1925.41	–	–
GVAGA-LYTAS	2097.28	0	–	–
GVAKP-LWTAS	484.315	2280.5	–	–
GVLFH-LSTAS	0	0	–	–
GVLHS-LRTAS	0	0	–	–
GVLMR-LNTAS	0	0	–	–
GVPFM-ILTAS	–	–	484.315	4922.1
GVPSW-LSTAS	12792.1	12792.1	–	–
GWGDR-LTTAS	–	–	1154.21	292.668
GWMHE-LKTAS	0	0	–	–
GWVGH-LSTAS	–	–	10866.7	386.839
GYYGE-LLTAS	990.764	27.918	–	–
HLPTA-LTASG	12792.1	8941.32	–	–
HLVAW-LTASG	10866.7	10866.7	–	–
